The values below come from US9499550B2 (BRISTOL-MYERS SQUIBB COMPANY, priority 2012, dated 2016).

Assay [1] deals with HCV genotype 1a (H77 strain) replicon in HUH-7 cells. The assay is described as follows: HCV replicon luciferase reporter assay, genotype 1a. To be noted: Hepatitis C virus, Huh-7, 72 h, HCV genotype 1a replicon luciferase assay, 3 days incubation, range class, read-out: LE_1a (EC50, range). It is filed as cell-based. An outline of the steps: (§1)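 Replicon inhibition for both genotypes was measured as Renilla luciferase signal (EnduRen, 7.5 μM final, 2 h) after 3-day, 37° C exposure of replicon-bearing HUH-7 cells in 4% FCS DMEM, 0.5% DMSO. The 1b construct carries S1179I; the 1a H77 construct carries P1496L and S2204I. Twenty-point, 3-fold dilutions were fitted four-parametrically for EC50, and CC50 was taken from multiplexed Cell Titer-Blue.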

Assay [2] deals with HCV genotype 1b (Con1) replicon in HUH-7 cells. The assay is described as follows: HCV replicon luciferase reporter assay, genotype 1b. The settings on record: Hepatitis C virus, Huh-7, 72 h, HCV genotype 1b replicon luciferase assay, 3 days incubation, range class, read-out: LE_1b (EC50, range). The assay is classed as cell-based. The essentials: as §1

As for `COCCOc1cnc(O[C@@H]2C[C@H]3C(=O)N[C@]4(C(=O)NS(=O)(=O)C5CC5)C[C@H]4/C=C\CC[C@H](C)C[C@@H](C)[C@H](NC(=O)OC(C)(C)C(C)(F)F)C(=O)N3C2)c2ccc(OC)cc12` [Compound 1150, 3,3-difluoro-2-methylbutan-2-yl((2R,6S,7R,9S,13aS,14aR,16aS,Z)-14a-((cyclopropylsulfonyl)carbamoyl)-2-((6-methoxy-4-(2-methoxyethoxyl)isoquinolin-1-yl)oxy)-7,9-dimethyl-5,16-dioxo-1,2,3,5,6,7,8,9,10,11,13a,14,14a,15,16,16a-hexadecahydrocyclopropa[e]pyrrolo[1,2-a][1,4]diazacyclopentadecin-6-yl)carbamate], the EC50 in assay [1] and in assay [2] was below 5.46 nM throughout.
As for `COCCOc1cnc(O[C@@H]2C[C@H]3C(=O)N[C@]4(C(=O)NS(=O)(=O)C5CC5)C[C@H]4/C=C\CC[C@@H](C)C[C@@H](C)[C@H](NC(=O)OC(C)(C)C(C)(F)F)C(=O)N3C2)c2ccc(OC)cc12` [Compound 1151, 3,3-difluoro-2-methylbutan-2-yl((2R,6S,7R,9R,13aS,14aR,16aS,Z)-14a-((cyclopropylsulfonyl)carbamoyl)-2-((6-methoxy-4-(2-methoxyethoxyl)isoquinolin-1-yl)oxy)-7,9-dimethyl-5,16-dioxo-1,2,3,5,6,7,8,9,10,11,13a,14,14a,15,16,16a-hexadecahydrocyclopropa[e]pyrrolo[1,2-a][1,4]diazacyclopentadecin-6-yl)carbamate], the EC50 in assay [1] and in assay [2] was below 5.46 nM each time.
Turning to `COCCOc1cnc(O[C@@H]2C[C@H]3C(=O)N[C@]4(C(=O)NS(=O)(=O)C5(C)CC5)C[C@H]4/C=C\CC[C@H](C)C[C@@H](C)[C@H](NC(=O)OC(C)(C)C)C(=O)N3C2)c2ccc(OC)cc12` [Compound 1152, tert-butyl ((2R,6S,7R,9S,13aS,14aR,16aS,Z)-2-((6-methoxy-4-(2-methoxyethoxyl)isoquinolin-1-yl)oxy)-7,9-dimethyl-14a-(((1-methylcyclopropyl)sulfonyl)carbamoyl)-5,16-dioxo-1,2,3,5,6,7,8,9,10,11,13a,14,14a,15,16,16a-hexadecahydrocyclopropa[e]pyrrolo[1,2-a][1,4]diazacyclopentadecin-6-yl)carbamate], the EC50 in assay [1] and in assay [2] was below 5.46 nM throughout.
Take `COCCOc1cnc(O[C@@H]2C[C@H]3C(=O)N[C@]4(C(=O)NS(=O)(=O)C5(C)CC5)C[C@H]4/C=C\CC[C@@H](C)C[C@@H](C)[C@H](NC(=O)OC(C)(C)C)C(=O)N3C2)c2ccc(OC)cc12` [Compound 1153, tert-butyl ((2R,6S,7R,9R,13aS,14aR,16aS,Z)-2-((6-methoxy-4-(2-methoxyethoxyl)isoquinolin-1-yl)oxy)-7,9-dimethyl-14a-(((1-methylcyclopropyl)sulfonyl)carbamoyl)-5,16-dioxo-1,2,3,5,6,7,8,9,10,11,13a,14,14a,15,16,16a-hexadecahydrocyclopropa[e]pyrrolo[1,2-a][1,4]diazacyclopentadecin-6-yl)carbamate]: the half-maximal effective concentration (EC50) in assay [1] and in assay [2] was below 5.46 nM throughout.
With `COCCOc1cnc(O[C@@H]2C[C@H]3C(=O)N[C@]4(C(=O)NS(=O)(=O)C5CC5)C[C@H]4/C=C\CC[C@H](C)C[C@@H](C)[C@H](NC(=O)OC(C)(C)C)C(=O)N3C2)c2ccc(OC)cc12` [Compound 1154, tert-butyl ((2R,6S,7R,9S,13aS,14aR,16aS,Z)-14a-((cyclopropylsulfonyl)carbamoyl)-2-((6-methoxy-4-(2-methoxyethoxyl)isoquinolin-1-yl)oxy)-7,9-dimethyl-5,16-dioxo-1,2,3,5,6,7,8,9,10,11,13a,14,14a,15,16,16a-hexadecahydrocyclopropa[e]pyrrolo[1,2-a][1,4]diazacyclopentadecin-6-yl)carbamate], the EC50 in assay [1] and in assay [2] was below 5.46 nM throughout.
Turning to `COCCOc1cnc(O[C@@H]2C[C@H]3C(=O)N[C@]4(C(=O)NS(=O)(=O)C5CC5)C[C@H]4/C=C\CC[C@@H](C)C[C@@H](C)[C@H](NC(=O)OC(C)(C)C)C(=O)N3C2)c2ccc(OC)cc12` [Compound 1155, tert-butyl ((2R,6S,7R,9R,13aS,14aR,16aS,Z)-14a-((cyclopropylsulfonyl)carbamoyl)-2-((6-methoxy-4-(2-methoxyethoxyl)isoquinolin-1-yl)oxy)-7,9-dimethyl-5,16-dioxo-1,2,3,5,6,7,8,9,10,11,13a,14,14a,15,16,16a-hexadecahydrocyclopropa[e]pyrrolo[1,2-a][1,4]diazacyclopentadecin-6-yl)carbamate], the concentration giving a half-maximal response (EC50) in assay [1] and in assay [2] was below 5.46 nM in each case.
With `COCCOc1cnc(O[C@@H]2C[C@H]3C(=O)N[C@]4(C(=O)NS(=O)(=O)C5(C)CC5)C[C@H]4/C=C\CC[C@H](C)C[C@@H](C)[C@H](NC(=O)OC4COC4)C(=O)N3C2)c2ccc(OC)cc12` [Compound 1156, oxetan-3-yl((2R,6S,7R,9S,13aS,14aR,16aS,Z)-2-((6-methoxy-4-(2-methoxyethoxyl)isoquinolin-1-yl)oxy)-7,9-dimethyl-14a-(((1-methylcyclopropyl)sulfonyl)carbamoyl)-5,16-dioxo-1,2,3,5,6,7,8,9,10,11,13a,14,14a,15,16,16a-hexadecahydrocyclopropa[e]pyrrolo[1,2-a][1,4]diazacyclopentadecin-6-yl)carbamate], the concentration for a half-maximal effect (EC50) in assay [1] and in assay [2] was 4.82 to 103 nM each time.
`COCCOc1cnc(O[C@@H]2C[C@H]3C(=O)N[C@]4(C(=O)NS(=O)(=O)C5(C)CC5)C[C@H]4/C=C\CC[C@@H](C)C[C@@H](C)[C@H](NC(=O)OC4COC4)C(=O)N3C2)c2ccc(OC)cc12` [Compound 1157, oxetan-3-yl ((2R,6S,7R,9R,13aS,14aR,16aS,Z)-2-((6-methoxy-4-(2-methoxyethoxyl)isoquinolin-1-yl)oxy)-7,9-dimethyl-14a-(((1-methylcyclopropyl)sulfonyl)carbamoyl)-5,16-dioxo-1,2,3,5,6,7,8,9,10,11,13a,14,14a,15,16,16a-hexadecahydrocyclopropa[e]pyrrolo[1,2-a][1,4]diazacyclopentadecin-6-yl)carbamate]: the EC50 in assay [1] and in assay [2] was 4.82 to 103 nM each time.
As to `COCCOc1cnc(O[C@@H]2C[C@H]3C(=O)N[C@]4(C(=O)NS(=O)(=O)C5CC5)C[C@H]4/C=C\CC[C@H](C)C[C@@H](C)[C@H](NC(=O)OC4COC4)C(=O)N3C2)c2ccc(OC)cc12` [Compound 1158, oxetan-3-yl ((2R,6S,7R,9S,13aS,14aR,16aS,Z)-14a-((cyclopropylsulfonyl)carbamoyl)-2-((6-methoxy-4-(2-methoxyethoxyl)isoquinolin-1-yl)oxy)-7,9-dimethyl-5,16-dioxo-1,2,3,5,6,7,8,9,10,11,13a,14,14a,15,16,16a-hexadecahydrocyclopropa[e]pyrrolo[1,2-a][1,4]diazacyclopentadecin-6-yl)carbamate], the half-maximal effective concentration (EC50) in assay [1] and in assay [2] was 4.82 to 103 nM throughout.
